Measurements taken from patent US7238795B2, “Nucleic acid binding compounds containing pyrazolo[3,4-d]pyrimidine analogues of purin-2,6-diamine and their uses” (Roche Molecular Systems, Inc., priority 2000, dated 2007).
Values joined by “and” are separate entries in the source; they are usually repeats but may differ in a detail not shown here. Equal entries are not always repeated. Where two headings read alike, the source gives them in different places. Each block holds one compound with its values, some of them ahead of it.

What was measured:
[1] = Deprotection (alkaline hydrolysis) of base-protected nucleosides in aqueous ammonia, HPLC monitoring; details: for time of complete deprotection: conc. ammonia, 40°
[2] = Half-life of the N-glycosylic bond in HCl, followed UV-spectrophotometrically and by HPLC; type: physicochemical; details: 25°; for half-life: read-out: Half-life τ
Method: Next, the half-lives of the N-glycosylic bonds of compounds 2a,b in acidic medium were measured and compared with that of compound 1. […]

[3] = target: T1, adenosine deaminase (ADA) (Homo sapiens, UniProt P00813); assay: Deamination by adenosine deaminase, followed UV-spectrophotometrically; type: biochemical; details: compared with purine nucleoside 1; even at high enzyme concentrations
T1 sequence (P00813 1-363): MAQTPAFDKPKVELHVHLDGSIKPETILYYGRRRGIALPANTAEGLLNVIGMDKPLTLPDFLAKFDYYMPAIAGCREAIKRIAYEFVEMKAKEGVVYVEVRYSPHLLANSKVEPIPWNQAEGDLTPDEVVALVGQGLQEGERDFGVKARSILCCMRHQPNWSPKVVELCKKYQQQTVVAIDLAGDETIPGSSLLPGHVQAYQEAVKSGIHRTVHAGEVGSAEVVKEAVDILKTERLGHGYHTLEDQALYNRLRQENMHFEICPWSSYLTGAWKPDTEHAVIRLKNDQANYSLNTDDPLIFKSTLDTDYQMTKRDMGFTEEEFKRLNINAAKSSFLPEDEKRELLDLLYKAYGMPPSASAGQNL
From the text: The reaction was followed UV-spectrophoto-metrically (FIG. 1a).
The time-dependent spectra show two isosbestic points (λ=234 nm and 267 nm) indicating the conversion of the starting material into only one reaction product. The deamination of 2a occurs much slower than that of the purine nucleoside 1.

[4] = test system: complementary oligodeoxyribonucleotide strand (antiparallel duplex); assay: Tm values and thermodynamic data of antiparallel DNA-DNA duplexes (UV melting curves, Meltwin 3.0); type: binding
[5] = test system: complementary oligodeoxyribonucleotide strand (antiparallel duplex); details: data published so far; n^2Ad instead of dA; cited from earlier work
[6] = buffer
[7] = 25% aq. NH3, 40°, HPLC-monitoring

half-life of alkaline hydrolysis ([1]; 25% aq. NH3 at 40°): 20.5 min
Structure (SMILES): CC(C)C(=O)Nc1nc(N)c2c(Br)nn([C@H]3C[C@H](O)[C@@H](CO)O3)c2n1 [compound 14, 4-Amino-3-bromo-1-(2-deoxy-β-D-erythro-pentofuranosyl)-6-[(2-methylpropanoyl)amino]-1H-pyrazolo[3,4-d]pyrimidine]

Half-life τ ([2]; Table 8, 0.5 N HCl, stable = within 3 h): stable^b)
half-life ([2]; Table 8, 2 N HCl): 61 min
Structure (SMILES): Nc1nc(N)c2c(I)nn([C@H]3C[C@H](O)[C@@H](CO)O3)c2n1 [2c, 1-(2-Deoxy-β-D-erythro-pentofuranosyl)-3-iodo-1H-pyrazolo[3,4-d]-pyrimidin-4,6-diamine]

Half-life τ ([2]; 0.5 N HCl, Stable = within 4 h): Stable^b)
half-life ([2]; 2 N HCl): 87 min
deamination by adenosine deaminase [3]: not deaminated
Structure (SMILES): Nc1nc(N)c2c(Br)nn([C@H]3C[C@H](O)[C@@H](CO)O3)c2n1 [2b, 3-Bromo-1-[2-deoxy-β-D-erythro-pentofuranosyl]-1H-pyrazolo[3,4-d]-pyrimidin-4,6-diamine]
Tm increase (stabilization) per modified residue ([4]; text Example 2, standard duplex 102•103): 4.5 ° and 4-5 °
Tm-value of duplex 102•103 with six residues replacing dA ([4]; text b259): 75 °

complete removal of the two benzoyl groups ([1]; 25% aq. NH3, 40°, HPLC monitoring): 8 to 9 h
Structure (SMILES): O=C(Nc1nc(NC(=O)c2ccccc2)c2cnn([C@H]3C[C@H](O)[C@@H](CO)O3)c2n1)c1ccccc1 [5b, N^4,N^6-Bis(benzoyl)-1-[2-deoxy-β-D-erythro-pentofuranosyl]-1H-pyrazolo[3,4-d]-pyrimidin-4,6-diamine]

time of complete deprotection ([1]; HPLC-monitoring at 260 nm): 450 min
Structure (SMILES): CCCCN(C=Nc1nc(N=CN(CCCC)CCCC)c2c(Br)nn([C@H]3C[C@H](O)[C@@H](CO)O3)c2n1)CCCC [8b, N^4,N^6-Bis((di-n-butylamino)methylene)-3-bromo-1-[2-deoxy-β-D-erythro-pentofuranosyl]-1H-pyrazolo[3,4-d]-pyrimidin-4,6-diamine]

removal of the first pac-group [1, 7]: ≤ 5 min
removal of the second pac-group [1, 7]: 20 min
complete deprotection ([1]; 25% aq. NH3 at r.t.): less than one hour
Structure (SMILES): O=C(COc1ccccc1)Nc1nc(NC(=O)COc2ccccc2)c2cnn([C@H]3C[C@H](O)[C@@H](CO)O3)c2n1 [5a, N^4,N^6-Bis(phenoxyacetyl)-1-[2-deoxy-β-D-erythro-pentofuranosyl]-1H-pyrazolo[3,4-d]-pyrimidin-4,6-diamine]

time for complete deprotection ([1]; 25% aq. NH3, 40° C., HPLC-monitoring at 260 nm): 450 min
Structure (SMILES): O=C(Nc1nc(NC(=O)c2ccccc2)c2c(I)nn([C@H]3C[C@H](O)[C@@H](CO)O3)c2n1)c1ccccc1 [13b, 1-[2-Deoxy-β-D-erythro-pentofuranosyl]-4,6-dibenzamido-3-iodo-1H-pyrazolo[3,4-d]-pyrimidine]

half-life ([2]; 0.5 N HCl, Stable = within 4 h): 6 min
Structure (SMILES): Nc1nc(N)c2ncn([C@H]3C[C@H](O)[C@@H](CO)O3)c2n1 [compound 1, 2-amino-2′-deoxyadenosine, reference compound]
Tm-increase of DNA duplex [5]: 1-2 °C

time of complete deprotection ([1]; HPLC-monitoring at 260 nm): 440 min
Structure (SMILES): CCCCN(C=Nc1nc(N=CN(CCCC)CCCC)c2cnn([C@H]3C[C@H](O)[C@@H](CO)O3)c2n1)CCCC [8a, N^4,N^6-Bis((di-n-butylamino)methylene)-1-[2-deoxy-β-D-erythro-pentofuranosyl]-1H-pyrazolo[3,4-d]-pyrimidin-4,6-diamine]

half-life of alkaline hydrolysis [6]: 4.5 min
Structure (SMILES): CC(C)C(=O)Nc1nc(NC(=O)C(C)C)c2c(Br)nn([C@H]3C[C@H](O)[C@@H](CO)O3)c2n1 [13a, 3-Bromo-1-(2-deoxy-β-D-erythro-pentofuranosyl)-4,6-[(2-methylpropanoyl)amino]-1H-pyrazolo[3,4-d]pyrimidine]
